Experimental data taken from patent US12568969B2, “Pyridine compounds for controlling invertebrate pests” (FMC Corporation, priority 2020, dated 2026).

What was measured:
Format in all cases: in vivo
[1] = system: cotton melon aphid (Aphis gossypii (Glover)); test: whole plant or invertebrate; details: Aphis gossypii, 144 h, 6 days; for mortality at 250 ppm: sprayed at 250 ppm; for mortality at 50 ppm: sprayed at 50 ppm
Procedure: (§1) Test compounds were formulated using a solution containing 10% acetone, […] and 300 ppm Activator 909 non-ionic surfactant (Loveland Products, Loveland, Colorado, USA). The formulated compounds were applied in 1 mL of liquid through an atomizer nozzle positioned 1.27 cm (0.5 inches) above the top of each test unit. Test compounds were sprayed at the rates indicated, and each test was replicated three times.
[…] This was pre-infested with 30-40 insects on a piece of leaf according to the cut-leaf method, and the soil of the test unit was covered with a layer of sand.
Test compounds were formulated and sprayed at 250 and/or 50 ppm. After spraying, the test units were maintained in a growth chamber for 6 days at 19° C. and 70% relative humidity. Each test unit was then visually assessed for insect mortality.

[2] = system: green peach aphid (Myzus persicae (Sulzer)); test: Test D: control of green peach aphid on radish plant, spray; details: Myzus persicae, 144 h, 6 days; for mortality at 50 ppm: sprayed at 50 ppm; for mortality at 250 ppm: sprayed at 250 ppm
Procedure: as §1
For evaluating control of green peach aphid (Myzus persicae (Sulzer)) through contact and/or systemic means, the test unit consisted of a small open container with a 12-15-day-old radish plant inside. This was pre-infested by placing on a leaf of the test plant 30-40 aphids on a piece of leaf excised from a culture plant (cut-leaf method). The aphids moved onto the test plant as the leaf piece desiccated. After pre-infestation, the soil of the test unit was covered with a layer of sand.
[…] After spraying of the formulated test compound, each test unit was allowed to dry for 1 hour and then a black, screened cap was placed on top. The test units were held for 6 days in a growth chamber at 19-21° C. and 50-70% relative humidity. Each test unit was then visually assessed for insect mortality.

[3] = system: corn planthopper (Peregrinus maidis (Ashmead)); test: whole plant or invertebrate; details: Peregrinus maidis, 144 h, 6 days; for mortality at 50 ppm: sprayed at 50 ppm; for mortality at 250 ppm: sprayed at 250 ppm; for mortality at 10 ppm: sprayed at 10 ppm
Procedure: as §1
For evaluating control of corn planthopper (Peregrinus maidis (Ashmead)) through contact and/or systemic means, the test unit consisted of a small open container with a 3-4-day-old corn (maize) plant inside. White sand was added to the top of the soil prior to application of the test compound.
Test compounds were formulated and sprayed at 250 and/or 50 ppm and/or 10 ppm. After spraying of the formulated test compound, the test units were allowed to dry for 1 h before they were post-infested with ˜15-20 nymphs (18-to-21-day-old). A black, screened cap was placed on the top of each test unit, and the test units were held for 6 days in a growth chamber at 22-24° C. and 50-70% relative humidity. Each test unit was then visually assessed for insect mortality.

[4] = system: sweetpotato whitefly (Bemisia tabaci (Gennadius)); test: Test F: control of sweetpotato whitefly on cotton plant, spray; details: 312 h, 13 days; for mortality at 50 ppm: sprayed at 50 ppm; for mortality at 250 ppm: sprayed at 250 ppm
Procedure: as §1
For evaluating control of the sweetpotato whitefly (Bemisia tabaci (Gennadius)) through contact and/or systemic means, the test unit consisted of a small open container with a 12-14-day-old cotton plant inside. Prior to the spray application, both cotyledons were removed from the plant, leaving one true leaf for the assay. Adult whiteflies were allowed to lay eggs on the plant and then were removed from the test unit. Cotton plants infested with at least 15 eggs were submitted to the test for spraying.
Test compounds were formulated and sprayed at 250 and/or 50 ppm. After spraying, the test units were allowed to dry for 1 hour. The cylinders were then removed, and the units were taken to a growth chamber and held for 13 days at 28° C. and 50-70% relative humidity. Each test unit was then visually assessed for insect mortality.

Row | Structure (SMILES) | mortality at 250 ppm [1] [%] | mortality at 50 ppm [2] [%] | mortality at 250 ppm [2] [%] | mortality at 50 ppm [3] [%] | mortality at 250 ppm [3] [%] | mortality at 50 ppm [1] [%] | mortality at 10 ppm [3] [%] | mortality at 50 ppm [4] [%] | mortality at 250 ppm [4] [%]
1 | Fc1cncc(-n2cncn2)c1C(F)c1ccc(SC(F)(F)F)cc1 (stereo not shown) [Compound 2] | ≥ 80 | ≥ 80 | ≥ 80 | ≥ 80 | ≥ 80 | – | – | – | –
2 | Cc1ccn(-c2cncc(F)c2C(F)c2ccc(SC(F)(F)F)cc2)n1 (stereo not shown) [Compound 5] | – | – | ≥ 80 | ≥ 80 | ≥ 80 | – | – | – | –
3 | Cc1cnn(-c2cncc(F)c2C(F)c2ccc(SC(F)(F)F)cc2)c1 (stereo not shown) [Compound 6] | – | – | – | ≥ 80 | ≥ 80 | – | – | – | –
4 | FC(c1ccc(OC(F)(F)F)cc1)c1ccncc1-n1ccnn1 (stereo not shown) [Compound 10] | – | – | – | ≥ 80 | ≥ 80 | – | – | – | –
5 | COC(c1ccc(OC(F)(F)F)cc1)c1c(Cl)cncc1-n1nccn1 (stereo not shown) [Compound 16] | ≥ 80 | ≥ 80 | ≥ 80 | ≥ 80 | ≥ 80 | ≥ 80 | – | – | –
6 | Fc1cncc(-c2ccc[nH]2)c1C(F)c1ccc(OC(F)(F)F)cc1 (stereo not shown) [Compound 26] | – | – | – | ≥ 80 | ≥ 80 | – | – | – | –
7 | Cc1cncc(-n2nccn2)c1C(F)c1ccc(OC(F)(F)F)cc1 (stereo not shown) [Compound 38] | ≥ 80 | – | ≥ 80 | ≥ 80 | ≥ 80 | ≥ 80 | ≥ 80 | – | –
8 | Fc1cncc(-c2nc[nH]n2)c1C(F)c1ccc(OC(F)(F)F)cc1 (stereo not shown) [Compound 40] | – | – | – | ≥ 80 | – | – | – | – | –
9 | Fc1cncc(-c2ccsc2)c1C(F)c1ccc(OC(F)(F)F)cc1 (stereo not shown) [Compound 46] | – | – | – | ≥ 80 | – | – | ≥ 80 | – | –
10 | Fc1cncc(-c2cscn2)c1C(F)c1ccc(OC(F)(F)F)cc1 (stereo not shown) [Compound 49] | ≥ 80 | – | – | ≥ 80 | ≥ 80 | – | ≥ 80 | – | –
11 | COC(c1ccc(OC(F)(F)F)cc1)c1c(Cl)cncc1-n1cccn1 (stereo not shown) [Compound 52] | ≥ 80 | – | – | – | – | – | – | – | –
12 | O=S(=O)(c1ccc(C(F)c2c(F)cncc2-n2nccn2)cc1)C(F)(F)F (stereo not shown) [Compound 54] | ≥ 80 | ≥ 80 | ≥ 80 | – | – | ≥ 80 | – | – | –
13 | CCn1ccc(-c2cncc(F)c2C(F)c2ccc(OC(F)(F)F)cc2)n1 (stereo not shown) [Compound 57] | ≥ 80 | – | – | ≥ 80 | – | – | – | – | –
14 | O=S(=O)(c1ccc(C(F)c2c(Br)cncc2-n2nccn2)cc1)C(F)(F)F (stereo not shown) [Compound 64] | ≥ 80 | – | – | ≥ 80 | – | – | – | – | –
15 | COC(c1ccc(OC(F)(F)F)cc1)c1c(Br)cncc1-n1nccn1 (stereo not shown) [Compound 65] | – | – | – | ≥ 80 | – | – | – | – | –
16 | FC(c1ccc(SC(F)(F)F)cc1)c1ccncc1-n1ccnn1 (stereo not shown) [Compound 68] | ≥ 80 | – | ≥ 80 | – | – | ≥ 80 | – | – | –
17 | COC(c1ccc(SC(F)(F)F)cc1)c1c(F)cncc1-n1cccn1 (stereo not shown) [Compound 70] | ≥ 80 | – | ≥ 80 | ≥ 80 | ≥ 80 | ≥ 80 | ≥ 80 | – | –
18 | COC(c1ccc([S+]([O-])C(F)(F)F)cc1)c1c(F)cncc1-n1cccn1 (stereo not shown) [Compound 72] | ≥ 80 | – | ≥ 80 | – | – | – | – | – | –
19 | [O-][S+](c1ccc(C(F)c2c(F)cncc2-n2cccn2)cc1)C(F)(F)F (stereo not shown) [Compound 73] | ≥ 80 | – | – | – | – | ≥ 80 | – | – | –
20 | COC(c1ccc([S+]([O-])C(F)(F)F)cc1)c1c(F)cncc1-n1cncn1 (stereo not shown) [Compound 74] | ≥ 80 | ≥ 80 | ≥ 80 | – | – | ≥ 80 | – | – | –
21 | COC(c1ccc(SC(F)(F)F)cc1)c1c(F)cncc1-c1nccs1 (stereo not shown) [Compound 75] | ≥ 80 | – | – | – | ≥ 80 | – | – | – | –

Row | Structure (SMILES) | mortality at 250 ppm [1] [%] | mortality at 50 ppm [2] [%] | mortality at 250 ppm [2] [%] | mortality at 50 ppm [3] [%] | mortality at 250 ppm [3] [%] | mortality at 50 ppm [1] [%] | mortality at 10 ppm [3] [%] | mortality at 50 ppm [4] [%] | mortality at 250 ppm [4] [%]
22 | COC(c1ccc(SC(F)(F)F)cc1)c1c(F)cncc1-c1ncco1 (stereo not shown) [Compound 76] | ≥ 80 | – | – | ≥ 80 | ≥ 80 | ≥ 80 | – | – | –
23 | Fc1cncc(-c2nccs2)c1C(F)c1ccc(SC(F)(F)F)cc1 (stereo not shown) [Compound 77] | ≥ 80 | – | ≥ 80 | ≥ 80 | ≥ 80 | – | – | – | –
24 | COC(c1ccc(SC(F)(F)F)cc1)c1c(F)cncc1-c1cc(C)no1 (stereo not shown) [Compound 82] | – | – | – | – | ≥ 80 | – | – | – | –
25 | COC(c1ccc(SC(F)(F)F)cc1)c1c(F)cncc1-c1ncon1 (stereo not shown) [Compound 83, 3-[5-fluoro-4-[methoxy-[4-(trifluoromethylsulfanyl)phenyl]methyl]-3-pyridyl]-1,2,4-oxadiazole] | ≥ 80 | – | ≥ 80 | ≥ 80 | ≥ 80 | ≥ 80 | – | – | –
26 | FC(c1ccc(SC(F)(F)F)cc1)c1c(Br)cncc1-n1cccn1 (stereo not shown) [Compound 85] | ≥ 80 | – | – | ≥ 80 | ≥ 80 | ≥ 80 | – | – | –
27 | FC(c1ccc(SC(F)(F)F)cc1)c1c(Br)cncc1-n1nccn1 (stereo not shown) [Compound 86] | ≥ 80 | ≥ 80 | ≥ 80 | ≥ 80 | ≥ 80 | ≥ 80 | – | – | –
28 | FC(c1ccc(SC(F)(F)F)cc1)c1c(Br)cncc1-n1ccnn1 (stereo not shown) [Compound 87] | – | – | ≥ 80 | – | – | – | – | – | –
29 | Fc1cncc(C2OCCO2)c1C(F)c1ccc(SC(F)(F)F)cc1 (stereo not shown) [Compound 96] | ≥ 80 | – | ≥ 80 | ≥ 80 | ≥ 80 | ≥ 80 | ≥ 80 | – | –
30 | [O-][S+](c1ccc(C(F)c2c(I)cncc2-n2nccn2)cc1)C(F)(F)F (stereo not shown) [Compound 97] | ≥ 80 | – | ≥ 80 | – | – | ≥ 80 | – | – | –
31 | Fc1cncc(C2OCCCO2)c1C(F)c1ccc(SC(F)(F)F)cc1 (stereo not shown) [Compound 98] | – | – | – | ≥ 80 | ≥ 80 | – | ≥ 80 | – | –
32 | FC(c1ccc(SC(F)(F)F)cc1)c1c(Cl)cncc1-n1cccn1 (stereo not shown) [Compound 102] | ≥ 80 | – | – | – | – | ≥ 80 | – | – | –
33 | FC(c1ccc(SC(F)(F)F)cc1)c1c(Cl)cncc1-c1ncno1 (stereo not shown) [Compound 106] | ≥ 80 | – | – | ≥ 80 | ≥ 80 | ≥ 80 | ≥ 80 | – | –
34 | CC(C)(C)c1ccc(C(F)c2c(Cl)cncc2-n2nccn2)cc1 (stereo not shown) [Compound 110] | – | – | – | ≥ 80 | ≥ 80 | – | ≥ 80 | – | –
35 | Fc1cncc(-c2cccs2)c1C(F)c1ccc(SC(F)(F)F)cc1 (stereo not shown) [Compound 111] | ≥ 80 | – | – | ≥ 80 | ≥ 80 | ≥ 80 | ≥ 80 | – | –
36 | Cc1sccc1-c1cncc(F)c1C(F)c1ccc(SC(F)(F)F)cc1 (stereo not shown) [Compound 113] | ≥ 80 | – | – | ≥ 80 | ≥ 80 | ≥ 80 | ≥ 80 | – | –
37 | Cc1cscc1-c1cncc(F)c1C(F)c1ccc(SC(F)(F)F)cc1 (stereo not shown) [Compound 114] | – | – | – | ≥ 80 | ≥ 80 | – | ≥ 80 | – | –
38 | COC(c1ccc(Br)cc1)c1c(F)cncc1-n1nccn1 (stereo not shown) [Compound 117] | – | – | – | – | – | – | – | ≥ 70 | ≥ 70
39 | COC(c1ccc(SC(F)(F)F)cc1)c1c(Br)cncc1-n1ccnn1 (stereo not shown) [Compound 134] | – | – | – | – | – | – | – | ≥ 70 | ≥ 70
40 | COC(c1ccc(OC(F)(F)F)cc1)c1c(F)cncc1-c1ncno1 (stereo not shown) [Compound 138] | – | – | – | ≥ 80 | ≥ 80 | – | – | – | –
41 | COC(c1ccc(C(C)(C)C)cc1)c1c(F)cncc1-c1ncno1 (stereo not shown) [Compound 139] | – | – | – | ≥ 80 | ≥ 80 | – | – | – | –
